Measured values: patent US11098040B2, “Compounds and methods of use” (Ferro Therapeutics, Inc., priority 2018, dated 2021)
Read-outs that look alike come from different tables or passages of the source.

Columns and labels:
HL-60 = experiment: Cell viability assay (CellTiter Glo), leukemia cell line HL-60; format: cell-based; settings: Homo sapiens, 96 hours
Experimental: (§1) Cell viability assay was performed to assess the potency of the compounds in human cancer cell lines KP4 (pancreatic ductal adenocarcinoma), MiaPaCa-2 (pancreatic carcinoma), AsPC-1 (pancreatic adenocarcinoma, ascites), 143B (osteosarcoma), and SJSA-1 (osteosarcoma). Selected compounds were also assayed in a human breast epithelial cell line MCF-10A, a nontumorigenic cell line as a control to assess differential activity. Cells at a density of 500-5,000 cells/well were seeded in 96-well plates and incubated at 37° C. overnight. A series of 9 different concentrations of compound stocks (500×) were created by 3-fold serial dilution in DMSO. These compounds were further diluted in culture media and then added to cells so that the final DMSO concentration was equal to 0.25% or less. After 96 hours of incubation, 50 μL of CellTiter Glo reagent (Promega) was added to each well and luminescence was measured after 10 minutes using EnVision (PerkinElmer). Compounds titrated from top concentration of up to 30 μM. The select compounds were tested initially from 30 μM as the top concentration in duplicates (range of 4.6 nM-30 μM). […] Luminescence from cells treated with DMSO alone was set as Max and % of inhibition was calculated as follows: Inhibition %=(Max-Sample value)/Max*100. Data was analyzed using XL-fit software (ID Business Solutions Ltd.). IC50, relative IC50, or % of top inhibition was calculated.
(§2) A group of selected analogs were further profiled in cell viability assays described above in multiple additional cancer cell lines, including lung cancer, melanoma, hepatocarcinoma, pancreatic cancer, leukemia, lymphoma, ovarian cancer, breast cancer, colon cancer, and sarcoma cell lines. Initial cell seeding numbers were adjusted for each cell line. Typically, 500-5000 cells/well for adherent cells and 5000-10000/well for suspension cells were seeded in 96-well plates.
(§3) The results of the assay in the leukemia cell lines are given in Table 16a for MV-4-1 and Table 16b for HL-60 and Kasumi-1.

SJSA-1 = experiment: Cell viability assay (CellTiter Glo), osteosarcoma SJSA-1; format: cell-based; settings: Homo sapiens, 96 hours
Experimental: as §1
(§4) The results of the assay in sarcoma cell lines are given in Table 21a for HT-1080 luc2 (fibrosarcoma expressing a luciferase gene), Table 21b for 143B (osteosarcoma), and Table 21c for SJSA-1 (osteosarcoma).

Kasumi-1 = experiment: Cell viability assay (CellTiter Glo), leukemia cell line Kasumi-1; format: cell-based; settings: Homo sapiens, 96 hours
Experimental: as §1, §2, §3

MDA-MB-435S = experiment: Cell viability assay (CellTiter Glo), melanoma cell line MDA-MB-435S; format: cell-based; settings: Homo sapiens, 96 hours
Experimental: as §1, §2

SW480 = experiment: Cell viability assay (CellTiter Glo), colon cancer cell line SW480; format: cell-based; settings: Homo sapiens, 96 hours
Experimental: as §1, §2

Huh7 = experiment: Cell viability assay (CellTiter Glo), hepatocellular carcinoma Huh7; format: cell-based; settings: Homo sapiens, Huh-7, 96 hours
Experimental: as §1, §2

SK-OV-3 = experiment: Cell viability assay (CellTiter Glo), ovarian cancer cell line SK-OV-3; format: cell-based; settings: Homo sapiens, 96 hours
Experimental: as §1, §2

PANC1 = experiment: Cell viability assay (CellTiter Glo), pancreatic cell line PANC1; format: cell-based; settings: Homo sapiens, PANC-1, 96 hours
Experimental: as §1, §2
(§5) The results of the assay in the pancreatic cell lines are given in Table 15a for PANC1, Table 15b for MiaPaCa-2, and Table 15c for AsPC-1.

HT-1080 luc2 = experiment: Cell viability assay (CellTiter Glo), fibrosarcoma HT-1080 luc2; format: cell-based; settings: Homo sapiens, fibrosarcoma expressing a luciferase gene, 96 hours, CellTiter Glo, read-out: IC50 HT-1080 luc2
Experimental: as §1, §2, §4

HCC1954 = experiment: Cell viability assay (CellTiter Glo), breast cancer cell line HCC1954; format: cell-based; settings: Homo sapiens, 96 hours
Experimental: as §1, §2

HT29 = experiment: Cell viability assay (CellTiter Glo), colon cancer cell line HT29; format: cell-based; settings: Homo sapiens, HT-29, 96 hours
Experimental: as §1, §2

REC-1 = experiment: Cell viability assay (CellTiter Glo), lymphoma cell line REC-1; format: cell-based; settings: Homo sapiens, Rec1, 96 hours
Experimental: as §1, §2

MCF-10A = experiment: Cell viability assay (CellTiter Glo), non-tumorigenic breast epithelial cell line MCF-10A; format: cell-based; settings: Homo sapiens, 96 hours
Outline: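 MCF-10A cells (500-5,000/well) treated 96 h at 37° C with 9-point 3-fold dilutions from up to 30 μM, ≤0.25% DMSO, in duplicate. Viability by CellTiter Glo luminescence; % inhibition versus DMSO-only wells gave IC50, relative IC50 or % top inhibition. Paclitaxel positive control.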

Raji = experiment: Cell viability assay (CellTiter Glo), lymphoma cell line Raji; format: cell-based; settings: Homo sapiens, 96 hours
Experimental: as §1, §2

MiaPaCa-2 = experiment: Cell viability assay (CellTiter Glo), pancreatic carcinoma MiaPaCa-2; format: cell-based; settings: Homo sapiens
Outline: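 MiaPaCa-2 and AsPC-1 cells were seeded overnight at 37 °C and exposed for 96 h to 9-point, 3-fold dilutions from up to 30 μM (final DMSO ≤0.25%). CellTiter Glo luminescence was read, and inhibition was calculated relative to DMSO-only cells. IC50, relative IC50 or % top inhibition was derived.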

MV-4-1 = experiment: Cell viability assay (CellTiter Glo), leukemia cell line MV-4-1; format: cell-based; settings: 96 hours
Experimental: as §1, §2, §3

H2228 = experiment: Cell viability assay (CellTiter Glo), lung cancer cell line H2228; format: cell-based; settings: Homo sapiens, NCI-H2228
Experimental: as §1, §2

AsPC-1 = experiment: Cell viability assay (CellTiter Glo), pancreatic adenocarcinoma AsPC-1; format: cell-based; settings: Homo sapiens, ASPC1
Experimental: as §1, §5

H1299 = experiment: Cell viability assay (CellTiter Glo), lung cancer cell line H1299; format: cell-based; settings: Homo sapiens, NCI-H1299, 96 hours
Experimental: as §1, §2

Panc 02.03 = experiment: Cell proliferation assay, pancreatic cancer cell line Panc 02.03; format: cell-based; settings: Homo sapiens
Experimental: (§6) Cell viability assay was performed to assess the potency of the compounds in human cancer cell lines 786-O (renal cell carcinoma) and SJSA-1 (osteosarcoma). Additional cell lines, such as those described above in Example 4 as well as various others, e.g., pancreatic cancer cell lines (Panc 02.13, BxPC-3, Panc 12, Panc 02.03, Panc 6.03, PSN-1, HPAC, and Capan-1) and prostate cancer cell lines (PC-3, DU145, 22Rv1, NCI-H660, BPH1, LNCaP, BM-1604, and MDA PCa 2b), were tested for select compounds as shown in Table 25.
(§7) The cell proliferation assays for the compounds shown Table 25 was performed according to the protocols described herein, including Examples 4 and 6.

Capan-1 = experiment: Cell proliferation assay, pancreatic cancer cell line Capan-1; format: cell-based; settings: Homo sapiens
Experimental: as §6, §7

HPAC = experiment: Cell proliferation assay, pancreatic cancer cell line HPAC; format: cell-based; settings: Homo sapiens
Experimental: as §6, §7

BxPC-3 = experiment: Cell proliferation assay, pancreatic cancer cell line BxPC-3; format: cell-based; settings: Homo sapiens
Experimental: as §6, §7

PSN-1 = experiment: Cell proliferation assay, pancreatic cancer cell line PSN-1; format: cell-based; settings: Homo sapiens, PSN1
Experimental: as §6, §7

Panc 12 = experiment: Cell proliferation assay, pancreatic cancer cell line Panc 12; format: cell-based; settings: Cell Line Panc 12
Experimental: as §6, §7

Panc 02.13 = experiment: Cell proliferation assay, pancreatic cancer cell line Panc 02.13; format: cell-based
Experimental: as §6, §7

Panc 6.03 = experiment: Cell proliferation assay, pancreatic cancer cell line Panc 6.03; format: cell-based
Experimental: as §6, §7

143B = experiment: Cell viability assay (CellTiter Glo), osteosarcoma 143B; format: cell-based; settings: Homo sapiens
Experimental: as §1, §4

KP4 = experiment: Cell viability assay (CellTiter Glo), pancreatic ductal adenocarcinoma KP4; format: cell-based, human; settings: Homo sapiens, KP-4, Cell Line KP4; read-out: IC50
Outline: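 KP4 cells seeded at 1,000–10,000 per well, treated 96 h with 9-point 3-fold dilutions from 30 μM top (4.6 nM–30 μM, duplicates; ≤0.25% DMSO). Viability by CellTiter Glo luminescence; % inhibition relative to DMSO-only wells, giving IC50, relative IC50 or % top inhibition.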

[1] = mouse, in vivo, ip, 15 mg/kg
Experimental: (§8) Test compounds were dissolved either in 20% (w/w) sulfobutylether-β-cyclodextrin (SBECD) pH 3-7 aqueous solution, or 5% DMSO/(30-50%) PEG400/(65-45%) water. Test compound dosing solutions were administered intraperitoneally to Balb/c nude male mice. Blood samples were collected at various time points with EDTA-K2 as anti-coagulant on ice, and centrifuged to obtain plasma samples. The plasma samples were stored at −20° C. until analysis.
(§9) Into 10 μL of test compound plasma samples were added 2 μL DMSO then 200 μL of 5 ng/mL internal standard (VTSD) (Terfenadine) in MeOH/acetonitrile. The mixture was vortexed for 1 minute and centrifuged at 4000 rpm for 15 minutes. Calibration standards were prepared by spiking known amount of test compounds into blank plasma samples. The supernatant solution was diluted 5 times with Acetonitrile/H2O (with 0.1% formic acid, 1:1, v/v), and this is the solution for LC-MS/MS analysis. The limit of quantification (LOQ) was 1 ng/mL.
(§10) Typical HPLC mobile phases were mobile phase of 5 mM NH4OAc (with 0.05% formic acid); and mobile phase B of acetonitrile (with 0.1% formic acid). The HPLC column was Kinetex C18 (30 mm×3.00 mm). Mass spectrometer was tuned for each compound in the Multiple Reaction Monitoring (MRM) scanning mode and in the electrospray ionization mode. The lower limit of quantification was 1-10 ng.
(§11) In this study, K601 (RSL3) was formulated in 5% DMSO/30% PEG 400/65% water at 1.5 mg/mL. The volume of injection via intraperitoneal route was 10 mL/kg for a dose of 15 mg/kg. […] The limit of quantification (LOQ) was 1 ng/mL.
(§12) In this study, the compound was formulated in 20% (w/w) sulfobutylether-β-cyclodextrin (SBECD), pH 5 aqueous solution at 1.5 mg/mL. The volume of injection via intraperitoneal route was 10 mL/kg for a dose of 15 mg/kg. The concentration of test compounds in plasma were analyzed by LC-MS with the method described above. The limit of quantification was 1 ng/mL.
(§13) It was formulated in 5% DMSO/50% PEG400/45% Water pH adjusted to 4 with HCl as an aqueous solution at 1.0 mg/mL. The volume of injection via intraperitoneal route was 15 mL/kg for a dose of 15 mg/kg. The concentration of test compounds in plasma were analyzed by LC-MS with the method described above. The limit of quantification was 1 ng/mL. […] The limit of quantification was 1 ng/mL.
(§14) Compounds 24 and 28 were formulated in 20% (w/w) sulfobutylether-β-cyclodextrin (SBECD) with pH 3 and pH 4, respectively, as an aqueous solution at 1.0 mg/mL. Compound 67 was in 5% DMSO/50% PEG 400/45% water pH 4 (adjusted with 12 N HCl) aqueous solution at 1.0 mg/mL. The injection volume via intraperitoneal route was 10 mL/kg for a dose of 15 mg/kg. The concentration of test compounds in plasma were analyzed by LC-MS with the method described above. The limit of quantification was 1 ng/mL.

in vivo = settings: male, Balb/c nude, mouse, ip, 15 mg/kg
Experimental: as §8, §9, §10, §11, §12, §13, §14

[2] = MIA PaCa-2, pancreatic carcinoma, 96 hours, CellTiter Glo, read-out: IC50 MiaPaCa-2
[3] = lung cancer cell line, 96 hours, CellTiter Glo, read-out: IC50 H2228

| Structure (SMILES) | IC50 (HL-60) [nM] | IC50 (SJSA-1) [nM] | IC50 (Kasumi-1) [nM] | IC50 (MDA-MB-435S) [nM] | IC50 (SW480) [nM] | IC50 (Huh7) [nM] | IC50 (SK-OV-3) [nM] | IC50 (PANC1) [nM] | IC50 (HT-1080 luc2) [nM] | IC50 (HCC1954) [nM] | IC50 (HT29) [nM] | IC50 (REC-1) [nM] | IC50 (MCF-10A) [nM] | IC50 (Raji) [nM] | IC50 (MiaPaCa-2; [2]) [nM] | IC50 (MV-4-1) [nM] | IC50 (H2228; [3]) [nM] | IC50 (H1299) [nM] | other results |
| --- | --- | --- | --- | --- | --- | --- | --- | --- | --- | --- | --- | --- | --- | --- | --- | --- | --- | --- | --- |
| C[C@H]1Cc2c([nH]c3ccc(F)cc23)[C@H](c2ccc(N3CCOCC3)cc2)N1C(=O)CCl [Example 114] | 120 | 115 | 145 |  |  |  |  |  |  |  |  |  |  |  |  |  |  |  |  |
| COC(=O)[C@H]1Cc2c([nH]c3ccccc23)[C@H](c2ccc(N[C@]34CC5C[C@H](C[C@H](C5)C3)C4)cc2)N1C(=O)CCl [Example 29] | 31 | 14 | 28 | 6 | 2000 | 13 | 12 | 27 | 5 | 38 | 49 | 27 | 410 | 9 | 33 | 48 | 32 | 5 | IC50 (AsPC-1; pancreatic adenocarcinoma, ascites, 96 hours, CellTiter Glo, read-out: IC50 AsPC-1): 23 nM |
| C[C@H]1Cc2c([nH]c3ccccc23)[C@H](c2ccc(N3CCC3)cc2)N1C(=O)CCl [Compound 239] |  |  |  |  |  |  |  |  |  |  |  |  |  |  |  |  |  |  | IC50 (Panc 02.03): 394 nM; IC50 (Capan-1): > 1000 nM; IC50 (HPAC): 321 nM; IC50 (BxPC-3): 910 nM; IC50 (MiaPaCa-2; Cell Line Mia PaCa-2, read-out: IC50): 259 nM; IC50 (PSN-1): 183 nM; IC50 (Panc 12): 57.8 nM; IC50 (H2228; Cell Line H2228, read-out: IC50): 14.6 nM; IC50 (Panc 02.13): 1110 nM; IC50 (Panc 6.03): 166 nM; IC50 (AsPC-1; Cell Line AsPC-1, read-out: IC50): 65.2 nM; IC50 (143B; Cell Line 143B, read-out: IC50): 1120 nM; IC50 (KP4): 4 nM |
| COC(=O)c1ccc([C@@H]2c3[nH]c4ccc(F)cc4c3C[C@H](C(=O)OC)N2C(=O)CCl)cc1 [Example 92] |  |  |  | 17 | 533 | 73 | 47 | 78 | 12 | 96 | 228 | 70 | 1140 | 28 |  | 129 | 50 | 13 |  |
| COC(=O)[C@H]1Cc2c([nH]c3ccccc23)[C@H](c2ccc(NCC3CC3)cc2)N1C(=O)CCl [Example 83] |  |  |  | 47 | 10500 | 120 | 230 | > 1000 | 38 | 333 | 338 | 516 | 3790 | 151 |  | 524 | 112 | 41 |  |
| COC(=O)[C@H]1Cc2c([nH]c3ccccc23)[C@H](c2ccc(C(=O)OC(C)(C)C)cc2)N1C(=O)CCl [Example 1] |  | 18 |  |  |  |  |  |  |  |  |  |  | 850 |  | 5 |  |  |  | AUC Extr ([1]; male, Balb/c nude): 7.26%; exposure (Cmax, AUC) compared with K601 (RSL3) [1]: higher exposure; IC50 (143B; 96 h, osteosarcoma, 96 hours, CellTiter Glo, read-out: IC50 143B): 9 nM; AUC (in vivo): 123 ng·h/mL; AUC(0-inf) (in vivo): 132 ng·h/mL; AUC(0-t) (in vivo): 123 ng·h/mL; Cmax (in vivo): 126 ng/mL; MRT inf (in vivo): 1.4 h; Tmax (in vivo): 0.5 h; half-life (in vivo): 1.12 h; concentration at 0.5 h (in vivo; Calculated Concentration): 146 ng/mL; concentration at 1 h (in vivo; Calculated Concentration): 56.1 ng/mL; concentration at 4 h (in vivo; Calculated Concentration): 5.56 ng/mL; concentration at 0.5 h (in vivo; Calculated Concentration, Mean): 126 ng/mL; concentration at 1 h (in vivo; Calculated Concentration, Mean): 42.6 ng/mL; concentration at 2 h (in vivo; Calculated Concentration, Mean): 14.9 ng/mL; concentration at 4 h (in vivo; Calculated Concentration, Mean): 5.74 ng/mL |
